According to patent publication US10765687B2, “Methods and compounds to inhibit enveloped virus release” (Northwestern University, priority 2012, dated 2020):
Entries after “also recorded” stand apart in the source; their conditions may differ. Blank lines part the entries; values can stand above or below the compound they belong to. No end group written: not given here.

Tests used:
[1] = tested on: HSV-1 (strain F); experiment: HSV-1 virus production and release from infected Vero cells, plaque assay; type: cell-based; conditions: FIG. 8A
Description: Vero cells were inoculated with HSV-1 (strain F) at a multiplicity of infection (MOI) of 0.01 for 2 hr. The cells were washed and treated with 0.10 M sodium citrate buffer to inactivate viruses on the outside of the cells (for example, in the culture medium). The culture medium was replaced with fresh culture medium containing no inhibitor compound or different concentrations (40 μM or 80 μM) of inhibitor compounds F15 or N16 (candidate PTAP motif inhibitors against the TSG101 peptide [SEQ ID NO:33]) for 48 hr. The supernatants (culture medium) and total cells (culture medium and cells) were collected for determining infectious virus titer. The virus titers were determined by standard plaque assay on Vero cells.
Vero cells were grown in DMEM supplemented with 10% FBS. Viral infections were performed in DMEM supplemented with 1% heat-inactivated FBS. Vero cells were inoculated HSV-1 (strain F) at indicated concentrations, after 2 h, the cells were washed and treated with 0.1 M sodium citrate buffer (pH 3.0) for 1 min to inactivate unpenetrated viruses, washed again and incubated with fresh medium containing 1% heat-inactivated FBS. […] Then virus titers were determined by standard plaque assay on Vero cells.

[2] = molecular target: T1, TSG101 (SEQ ID NO:33) (Homo sapiens, UniProt Q99816); experiment: Fluorescence-based thermal shift (FTS) assay; type: binding; conditions: FIG. 7
T1 construct: polyhistidine leader with thrombin cleavage site (pET28b) (N); TEV cleavage site (N); made in house
T1 sequence (Q99816 with tags, fused parts or gaps): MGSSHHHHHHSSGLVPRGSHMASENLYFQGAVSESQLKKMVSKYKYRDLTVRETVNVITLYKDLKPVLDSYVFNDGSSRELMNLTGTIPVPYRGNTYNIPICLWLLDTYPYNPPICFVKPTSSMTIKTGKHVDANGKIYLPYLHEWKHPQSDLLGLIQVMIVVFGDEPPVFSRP
Description: The fluorescence-based thermal shift assay is based on the observation that a protein unfolds upon heating, exposing the hydrophobic residues within its tertiary structure. The unfolding temperature (Tm) is determined by the protein's primary sequence and solution environment. The FTS assay uses a fluorescent dye sensitive to a hydrophobic environment to probe protein stability and its modulation by small molecule ligands. The dye has a low fluorescence quantum yield when in a polar environment. […] J Biomol Screen 6: 429-440; Lo M C, Aulabaugh A, Jin G, Cowling R, Bard J, et al. (2004) Evaluation of fluorescence-based thermal shift assays for hit identification in drug discovery. […]
The NU-HTA has developed a robotic pipeline for small molecule protein ligand screening by FTS. See Luan C H, Light S H, Dunne S F, Anderson W F. Ligand screening using Fluorescence Thermal Shift Analysis (FTS). […] The pipeline uses an Echo550 acoustic transfer robot (Labcyte, CA) for compound addition and the Mosquito robot (TTP LabTechnologies, UK) for protein dispensing followed by thermal scanning coupled with fluorescence detection which is performed on a real-time PCR machine CFX384 (Bio-Rad Laboratories). […]

[3] = tested on: Vero cells; experiment: MTS cytotoxicity assay; conditions: 0 μM to 100 μM, uninfected cells, absorbance at 490 nm, FIG. 8B; listed as N16
Description: The cytotoxicity of the compounds was determined by a commercially available assay (Celltiter 96® AQueous One Solution cell proliferation assay reagent; Promega, Madison, Wis.), as described previously (Akkarawongsa et al., 2006). The CellTiter 96® AQueous One Solution Cell Proliferation Assay is a colorimetric method for determining the number of viable cells in proliferation, cytotoxicity or chemosensitivity assays. The CellTiter 96® AQueous One Solution Reagent contains a tetrazolium compound [3-(4,5-dimethylthiazol-2-yl)-5-(3-carboxymethoxyphenyl)-2-(4-sulfophenyl)-2H-tetrazolium, inner salt; MTS] and an electron coupling reagent (phenazine ethosulfate; PES). PES has enhanced chemical stability, which allows it to be combined with MTS to form a stable solution. […] Assays are performed by adding a small amount of the CellTiter 96® AQueous One Solution Reagent directly to culture wells, incubating for 1-4 hours and then recording absorbance at 490 nm with a 96-well plate reader. The quantity of formazan product as measured by the amount of 490 nm absorbance is directly proportional to the number of living cells in culture.
Briefly, Vero cells (1.5×10^4 cells/well) were seeded in a 96-well plate, and the plate was incubated for 24 h at 37° C. […] The plate was then incubated for 2 h at 37° C., and the absorbance at 490 nm was determined with a 96-well plate reader (Perkin Elmer).

[4] = molecular target: T2, WWP2 (SEQ ID NO:24) (Homo sapiens, UniProt O00308); experiment: Fluorescence polarization assay (FITC/TAMRA) for disruption of WWP2 binding to PY-motif peptide probe; conditions: SEQ ID NO: 17 probe with FITC or TAMRA label; read-out: [compound] to achieve 50% change in fluorescence polarization in FP Assay
T2 construct: poly-His (pET28b leader with thrombin site) (N, cleaved yes); made in house; host or cells: E. coli BL21 DE3
T2 sequence (O00308 with tags, fused parts or gaps): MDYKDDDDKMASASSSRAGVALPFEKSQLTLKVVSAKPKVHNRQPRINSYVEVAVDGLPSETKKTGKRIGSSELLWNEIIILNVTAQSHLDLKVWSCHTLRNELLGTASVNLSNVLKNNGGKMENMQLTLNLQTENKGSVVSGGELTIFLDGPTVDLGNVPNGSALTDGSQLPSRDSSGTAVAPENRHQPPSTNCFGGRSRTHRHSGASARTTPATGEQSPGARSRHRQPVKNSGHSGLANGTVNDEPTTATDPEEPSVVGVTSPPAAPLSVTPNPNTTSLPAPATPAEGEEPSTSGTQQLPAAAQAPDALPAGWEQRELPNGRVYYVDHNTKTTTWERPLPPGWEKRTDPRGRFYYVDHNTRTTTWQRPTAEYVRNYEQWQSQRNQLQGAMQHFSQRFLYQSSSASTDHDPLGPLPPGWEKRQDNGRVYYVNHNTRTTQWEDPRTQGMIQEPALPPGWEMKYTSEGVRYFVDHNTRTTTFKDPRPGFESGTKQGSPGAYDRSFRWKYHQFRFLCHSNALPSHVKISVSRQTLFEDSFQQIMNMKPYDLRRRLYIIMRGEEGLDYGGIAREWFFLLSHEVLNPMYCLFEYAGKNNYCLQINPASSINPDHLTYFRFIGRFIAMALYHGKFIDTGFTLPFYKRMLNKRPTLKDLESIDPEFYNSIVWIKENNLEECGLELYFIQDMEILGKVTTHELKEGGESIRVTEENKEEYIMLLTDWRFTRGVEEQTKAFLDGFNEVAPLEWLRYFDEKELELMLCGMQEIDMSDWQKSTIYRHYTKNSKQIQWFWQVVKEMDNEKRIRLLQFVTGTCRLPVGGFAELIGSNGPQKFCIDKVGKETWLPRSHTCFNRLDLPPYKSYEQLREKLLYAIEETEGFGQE
Description: (§1) Screens for compounds that disrupt the binding of the FTIC-peptide and WWP2 (SEQ ID NO:24) were carried out in 384-well plate format with 25 ml assay volume at ˜0.5 mM WWP2. Non-binding solid black plates (Corning Costar 3575) were used. The assay buffer contained 20 mM Tris and 150 mM NaCl at pH 7.9. FP was measured on either a Biotek Synergy4 or an Analyst GT plate reader. Data analysis was performed using the in-house software excelHTS. […] Each assay plate included 16 negative control wells containing protein-probe mix but no compounds and 16 wells containing only probe.

[5] = molecular target: T2, WWP2 (SEQ ID NO:24); experiment: Epic label-free binding assay of compounds to immobilized WWP2
Description: Another preferred embodiment of an in vitro screening method is depicted in FIG. 3. In this method, the ability of the candidate compound 204 to directly interact with the cellular ESCRT-linked component protein (for example, Nedd4 family of polypeptides [for example, WWP1 (SEQ ID NO:29), WWP2 (SEQ ID NO:24), Nedd4 L, among others]) or TGS101 is evaluated. According to this embodiment, a cellular ESCRT component protein 202 is preferably immobilized to a substrate 201 (for example, a microtiter plate) via a linking group 203 (for example, an amine group). The substrate preferably includes an optional reference area that provides a control to prevent non-specific interactions with non-mobilized ESCRT complex protein 202 with substrate 201. The substrate 201 is washed and irradiated with broadband light so that a baseline refractive index is measured. Test compound 204 is added to the system to permit its binding to the immobilized ESCRT component protein 202 to form a resultant associative complex 205. The substrate 201 is irradiated with broadband light again to detect a change in the wavelength of the reflected light.
High sensitivity biochemical plates (PerkinElmer Cat. No. 6057468) are used in WWP2 (SEQ ID NO:24) binding assay to maximize protein immobilization. […] Because compound stocks are in DMSO that affects the Epic label-free readout, the compound plates were prepared by Echo550 acoustic dispenser to keep DMSO content balanced for all wells. […]
The binding of compounds to WWP2 (SEQ ID NO:24) was measured on the EnSpire label-free plate reader. After 25 minutes of thermal equilibration, a baseline reading was taken on the label-free plates with protein immobilized in assay buffer. […] The final reading was taken after 25 min of thermal equilibration and over a period of 60 minutes. The label-free responses were measured as shifts in reflected wavelength and were expressed in picometers (pm). Results were analyzed using the EnSpire label-free user interface software. […]

[6] = molecular target: T3, WWP2 polypeptide (SEQ ID NO:24) (Homo sapiens, UniProt O00308); experiment: Fluorescence polarization WWP2 protein dose-response, binding of PY-motif peptide probes
T3 construct: poly-His (pET28b leader with thrombin site) (N, cleaved yes); made in house; host or cells: E. coli BL21 DE3
T3 sequence (O00308 with tags, fused parts or gaps): as above
Description: as §1, with “Screens for compounds that disrupt the binding of the FTIC-peptide and WWP2 (SEQ ID NO:24) were carried out in 384-well plate format with 25 ml assay volume at ˜0.5 mM WWP2.” left out

Compound: COc1ccc2[nH]c([S+]([O-])Cc3ncc(C)c(OC)c3C)nc2n1 (racemic) [Tenatoprazole, (RS)-3-Methoxy-8-[(4-methoxy-3,5-dimethyl-pyridin-2-yl)methylsulfinyl]-2,7,9-triazabicyclo[4.3.0]nona-2,4,8,10-tetraene]
HSV-1 virion release from cells (in words) [1]: inhibit HSV-1 virion release from cells
Thermal shift in protein unfolding (Tm) of TSG101 [2]: lower Tm
Cytotoxic effects on Vero cells [3]: Neither inhibitor compound was cytotoxic; also recorded: not toxic; also recorded: did not display cytotoxic effects

IC50 [4]: 20 to 30 µM
Compound: CCC(/C=C1\Sc2cc(Br)ccc2N1CC)=C\c1sc2cc(Br)ccc2[n+]1CC [CD23-G07]

Compound: CC1=C(O)C(=O)C=C2C1=CC=C1[C@@]2(C)CC[C@@]2(C)[C@@H]3C[C@](C)(C(=O)O)CC[C@]3(C)CC[C@]12C [Celastrol, 3-Hydroxy-9β,13α-dimethyl-2-oxo-24,25,26-trinoroleana-1(10),3,5,7-tetraen-29-oic acid]
Kd [5]: 18.5 µM

Compound: COc1ccc2[n-]c([S@@+]([O-])Cc3ncc(C)c(OC)c3C)nc2c1.[K+] [Esomeprazole potassium, 5-methoxy-2-[(R)-[(4-methoxy-3,5-dimethylpyridin-2-yl)methane]sulfinyl]-1H-1,3-benzodiazole, potassium]
HSV-1 virion release from cells (in words) [1]: inhibit HSV-1 virion release from cells

IC50 [4]: 3 µM
Compound: O=C1c2ccccc2C(=O)c2c(NC3CCCCC3)ccc(Nc3ccc(S(=O)(=O)O)cc3)c21 [NSC128437]

Compound: Cc1nn(-c2ccc(S(=O)(=O)[O-])cc2)c([O-])c1N=Nc1ccc(-c2ccc(N=Nc3ccc4c(S(=O)(=O)[O-])cc(S(=O)(=O)[O-])c(N)c4c3[O-])c([O-])c2)cc1[O-].[Cu+2].[Cu+2].[H+].[H+].[H+] [NSC306711]
IC50 [4]: 1 µM

Compound: ATASAPPPYVGSGGGATASAPPPYVGSGGGATASAPPPYVGSGGGRRR [SEQ ID NO:17]
Kd [6]: 0.2 µM
